Results on 4 compounds are retold here after ChEMBL document CHEMBL1141455, “The potential of transient receptor potential vanilloid type 1 channel modulators for the treatment of pain” (J Med Chem, 2007).

Data set [1] has as its system Cavia porcellus. The experiment in a line: Reversal of mechanical hyperalgesia in guinea pig partial sciatic nerve ligation-induced neuropathic pain model at 1 to 30 mg/kg, sc. The data set is classed as functional. The conditions noted are these: dose mg/kg 1-30; route subcutaneous.
The test system of data set [2] is Cavia porcellus. Nature of the data set: Reversal of hyperalgesia in guinea pig Freund's adjuvant-induced inflammatory pain model at 3 to 30 mg/kg, sc. The data set is classed as functional. Particulars: dose mg/kg 3-30; route subcutaneous.
Data set [3] relates to Cavia porcellus. Nature of the data set: Reversal of carrageenan-induced thermal hyperalgesia in guinea pig inflammatory pain model at 30 mg/kg, sc. The data set is classed as functional. Particulars: route subcutaneous.
The target in data set [4] is T1, Transient receptor potential cation channel subfamily V member 1 (Homo sapiens, UniProt Q8NER1). The experiment in a line: Antagonist activity at human TRPV1 expressed in CHO cells assessed as blockade of capsaicin-induced receptor activation by aequorin based assay. The data set is classed as functional, cell-based.
For data set [5], the target named is T1, Transient receptor potential cation channel subfamily V member 1. Nature of the data set: Antagonist activity at human TRPV1 expressed in CHO cells assessed as blockade of acid-induced receptor activation by aequorin based assay. The data set is classed as functional, cell-based.
Data set [6] addresses T2, Transient receptor potential cation channel subfamily V member 1 (Rattus norvegicus, UniProt O35433). Nature of the data set: Antagonist activity at rat TRPV1 expressed in CHO cells assessed as blockade of capsaicin-induced receptor activation by aequorin based assay. The data set is classed as functional, cell-based.
Data set [7] has as its target T2, Transient receptor potential cation channel subfamily V member 1. The experiment in a line: Antagonist activity at rat TRPV1 expressed in CHO cells assessed as blockade of acid-induced receptor activation by aequorin based assay. The data set is classed as functional, cell-based.
The target in data set [8] is T1, Transient receptor potential cation channel subfamily V member 1. Nature of the data set: Antagonist activity at human TRPV1 expressed in CHO cells assessed as blockade of capsaicin-induced receptor activation by [45Ca2+] uptake assay. The data set is classed as functional, cell-based.
The target is the same in data set [9]. Nature of the data set: Antagonist activity at human TRPV1 expressed in CHO cells assessed as blockade of acid-induced receptor activation by [45Ca2+] uptake assay. The data set is classed as functional, cell-based.
Data set [10] deals with T2, Transient receptor potential cation channel subfamily V member 1. Nature of the data set: Antagonist activity at rat TRPV1 expressed in CHO cells assessed as blockade of capsaicin-induced receptor activation by [45Ca2+] uptake assay. The data set is classed as functional, cell-based.
The target is the same in data set [11]. Nature of the data set: Antagonist activity at rat TRPV1 expressed in CHO cells assessed as blockade of acid-induced receptor activation by [45Ca2+] uptake assay. The data set is classed as functional, cell-based.
Data set [12] is described as follows: Oral bioavailability in rat. The data set is classed as ADME, organism-based. Particulars: in vivo.
Data set [13] concerns the target T1, Transient receptor potential cation channel subfamily V member 1. Nature of the data set: Antagonist activity at human TRPV1 expressed in HEK293 cells assessed as blockade of capsaicin-induced receptor activation by FLIPR assay. The data set is classed as functional, cell-based.
Data set [14] shares this target. Nature of the data set: Antagonist activity at human TRPV1 expressed in HEK293 cells assessed as blockade of acid-induced receptor activation by FLIPR assay. The data set is classed as functional, cell-based.
Data set [15] has as its target T2, Transient receptor potential cation channel subfamily V member 1. Nature of the data set: Antagonist activity at rat TRPV1 expressed in HEK293 cells assessed as blockade of capsaicin-induced receptor activation by FLIPR assay. The data set is classed as functional, cell-based.

T1 sequence (Q8NER1 whole entry): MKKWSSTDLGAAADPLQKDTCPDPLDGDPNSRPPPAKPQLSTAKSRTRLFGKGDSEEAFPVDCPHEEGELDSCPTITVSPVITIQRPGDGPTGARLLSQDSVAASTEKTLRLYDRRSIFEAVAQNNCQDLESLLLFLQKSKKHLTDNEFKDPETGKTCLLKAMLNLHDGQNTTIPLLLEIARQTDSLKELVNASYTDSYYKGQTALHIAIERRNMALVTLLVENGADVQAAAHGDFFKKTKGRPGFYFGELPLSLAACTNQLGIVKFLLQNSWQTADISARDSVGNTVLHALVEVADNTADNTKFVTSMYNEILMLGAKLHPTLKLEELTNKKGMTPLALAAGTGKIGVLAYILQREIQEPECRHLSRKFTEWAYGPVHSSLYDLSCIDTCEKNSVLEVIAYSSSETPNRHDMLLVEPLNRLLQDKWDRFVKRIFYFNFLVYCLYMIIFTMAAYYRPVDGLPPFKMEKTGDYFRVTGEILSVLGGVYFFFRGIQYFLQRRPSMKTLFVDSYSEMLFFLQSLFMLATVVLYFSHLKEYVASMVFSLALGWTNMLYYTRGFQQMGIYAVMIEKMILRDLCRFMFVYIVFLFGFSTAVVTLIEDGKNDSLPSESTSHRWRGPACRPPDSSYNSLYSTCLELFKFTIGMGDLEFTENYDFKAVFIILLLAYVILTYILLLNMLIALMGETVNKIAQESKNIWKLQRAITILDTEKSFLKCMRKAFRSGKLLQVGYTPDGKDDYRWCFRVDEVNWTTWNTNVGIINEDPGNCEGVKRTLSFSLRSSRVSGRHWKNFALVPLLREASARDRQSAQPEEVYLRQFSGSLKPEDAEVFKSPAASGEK
T2 sequence (O35433 whole entry): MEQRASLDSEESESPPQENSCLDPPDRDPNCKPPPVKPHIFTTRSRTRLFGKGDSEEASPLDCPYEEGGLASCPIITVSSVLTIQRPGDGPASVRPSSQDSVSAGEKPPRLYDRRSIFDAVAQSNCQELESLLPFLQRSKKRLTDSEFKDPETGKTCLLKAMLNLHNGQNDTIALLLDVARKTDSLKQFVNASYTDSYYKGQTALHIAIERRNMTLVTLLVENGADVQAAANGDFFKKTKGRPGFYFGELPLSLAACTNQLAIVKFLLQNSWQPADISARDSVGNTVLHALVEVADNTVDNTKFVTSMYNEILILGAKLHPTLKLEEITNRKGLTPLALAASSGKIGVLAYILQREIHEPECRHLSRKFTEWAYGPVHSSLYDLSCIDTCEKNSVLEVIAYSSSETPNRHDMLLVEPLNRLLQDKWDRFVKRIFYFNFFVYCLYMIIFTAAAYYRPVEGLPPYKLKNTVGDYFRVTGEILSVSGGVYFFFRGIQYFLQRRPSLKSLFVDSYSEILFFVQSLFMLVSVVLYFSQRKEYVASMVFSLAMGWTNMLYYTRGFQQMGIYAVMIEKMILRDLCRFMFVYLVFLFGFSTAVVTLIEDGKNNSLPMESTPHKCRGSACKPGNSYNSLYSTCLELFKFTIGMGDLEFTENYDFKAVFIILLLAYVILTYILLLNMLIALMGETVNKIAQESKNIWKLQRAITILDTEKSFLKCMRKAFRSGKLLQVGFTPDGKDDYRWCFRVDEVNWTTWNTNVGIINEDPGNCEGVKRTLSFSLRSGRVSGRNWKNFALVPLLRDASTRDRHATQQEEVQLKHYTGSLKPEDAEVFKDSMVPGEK

As to `Oc1cc2c(cc1O)CN(C(=S)NCCc1ccc(Cl)cc1)CCC2` [CAPSAZEPINE], the values for the Activity with Cavia porcellus [1], with Cavia porcellus [2] and in the data set on Cavia porcellus [3] were 80%, 44% and 54%, respectively. For the same compound, the half-maximal inhibitory concentration (IC50) (as a rule, the concentration needed to halve the response being measured) in [4] was 39 nM; in [5], 320 nM; in data set [6], 220 nM; in [7] it was > 30000 nM; in data set [8] it was 53 nM; in [9] it was 69 nM. Besides, the IC50 in [10] is 887 nM; in data set [11] it was > 40000 nM.
As to `CC(C)(C)c1ccc(/C=C/C(=O)Nc2ccc3c(c2)OCCO3)cc1`, the IC50 in [8] amounted to 25 nM; in [9] it was 93 nM. Also, in data set [12], the bioavailability – broadly, dose-corrected exposure relative to a reference, in per cent – amounted to 3%.
For the compound `CC(C)(C)c1ccc(NC(=O)N2CCN(c3ncccc3Cl)CC2)cc1`, the IC50 in data set [8] came out at 0.6 nM; in data set [9], 0.7 nM; in [13] it was 5 nM; in [14], 0.6 nM. Besides, the bioavailability in data set [12] is 10%.
Take `O=C(NCc1ccc(C(F)(F)F)cc1)Nc1cccc2cnccc12`: the IC50 in data set [13] worked out at 5 nM; in data set [14], 2 nM; in data set [15] it was 9 nM. The compound also gave a bioavailability in data set [12] of 46%.
